From ChEMBL document CHEMBL2069259, “Preclinical strategy to reduce clinical hepatotoxicity using in vitro bioactivation data for >200 compounds” (Chem Res Toxicol, 2012)

Legend:
CYP3A4 = CYP3A4 (Homo sapiens, UniProt P08684); assay: Inhibition of human CYP3A4 assessed as ratio of IC50 in absence of NADPH to IC50 for presence of NADPH using diethoxyfluorescein as substrate after 30 mins; details: probe diethoxyfluorescein
Liver microsomes [1] = assay: Metabolic stability in human liver microsomes assessed as GSH adduct formation at 100 uM after 90 mins by HPLC-MS analysis; details: 1.5 h
Liver microsomes [2] = details: human, 1.5 h, 100 µM
Liver microsomes [3] = assay: Metabolic stability in human liver microsomes assessed as high signal/noise ratio (S/N of >100) by measuring GSH adduct formation at 100 uM after 90 mins by HPLC-MS analysis; details: 1.5 h

CYP3A4, sequence (P08684 whole entry): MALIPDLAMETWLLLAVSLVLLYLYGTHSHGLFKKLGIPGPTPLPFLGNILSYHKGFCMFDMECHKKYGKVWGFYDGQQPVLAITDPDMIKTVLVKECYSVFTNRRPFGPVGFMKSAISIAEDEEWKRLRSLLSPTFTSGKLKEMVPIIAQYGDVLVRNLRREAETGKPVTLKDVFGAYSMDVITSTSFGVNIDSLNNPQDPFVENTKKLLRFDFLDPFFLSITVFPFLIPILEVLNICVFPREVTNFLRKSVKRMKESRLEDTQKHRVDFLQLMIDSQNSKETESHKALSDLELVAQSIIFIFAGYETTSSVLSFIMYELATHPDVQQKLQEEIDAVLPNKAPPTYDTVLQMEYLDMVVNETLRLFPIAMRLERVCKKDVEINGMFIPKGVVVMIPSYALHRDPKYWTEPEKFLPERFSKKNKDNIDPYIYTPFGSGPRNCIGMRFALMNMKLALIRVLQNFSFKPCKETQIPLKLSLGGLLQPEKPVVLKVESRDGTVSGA

SMILES	Stability (Liver microsomes [3])	other results
Cc1ccnc2c1NC(=O)c1cccnc1N2C1CC1 [NEVIRAPINE]	–	IC50 shift at 0.5 h (CYP3A4): 2; Stability (Liver microsomes [1]): Stable
CN(C)[C@@H]1C(O)=C(C(N)=O)C(=O)[C@@]2(O)C(O)=C3C(=O)c4c(O)cccc4[C@@](C)(O)[C@H]3C[C@@H]12 [TETRACYCLINE]	–	Stability (Liver microsomes [2]): Unstable
COc1ncnc(NS(=O)(=O)c2ccc(N)cc2)c1OC [SULFADOXINE]	–	Stability (Liver microsomes [2]): Unstable
CCc1ccc(CCOc2ccc(CC3SC(=O)NC3=O)cc2)nc1 (stereo unspecified) [PIOGLITAZONE]	–	Stability (Liver microsomes [2]): Unstable
C[C@@H](O)[C@H]1C(=O)N2C(C(=O)O)=C(S[C@@H]3CN[C@H](C(=O)N(C)C)C3)[C@H](C)[C@H]12 [MEROPENEM]	Unstable	–
CN(C)/N=N/c1[nH]cnc1C(N)=O [DACARBAZINE]	Unstable	–
CC[C@H](C)C(=O)O[C@H]1C[C@@H](C)C=C2C=C[C@H](C)[C@H](CC[C@@H]3C[C@@H](O)CC(=O)O3)[C@H]21 [LOVASTATIN]	–	Stability (Liver microsomes [2]): Unstable
Nc1ccc(C(=O)O)c(O)c1 [AMINOSALICYLIC ACID]	–	Stability (Liver microsomes [2]): Unstable
COC(=O)C1=C(C)NC(C)=C(C(=O)OCC(C)C)C1c1ccccc1[N+](=O)[O-] (stereo unspecified) [NISOLDIPINE]	–	Stability (Liver microsomes [2]): Unstable
O=P1(N(CCCl)CCCl)NCCCO1 (stereo unspecified) [CYCLOPHOSPHAMIDE ANHYDROUS]	–	Stability (Liver microsomes [2]): Unstable
CO[C@@]12[C@H](COC(N)=O)C3=C(C(=O)C(C)=C(N)C3=O)N1C[C@@H]1N[C@@H]12 [MITOMYCIN]	Unstable	–
NNc1nncc2ccccc12 [HYDRALAZINE]	–	Stability (Liver microsomes [2]): Unstable
CS(=O)(=O)OCCCCOS(C)(=O)=O [BUSULFAN]	Unstable	–
CO[C@H]1/C=C/O[C@@]2(C)Oc3c(C)c(O)c4c(O)c(c(/C=N/N5CCN(C)CC5)c(O)c4c3C2=O)NC(=O)/C(C)=C\C=C\[C@H](C)[C@H](O)[C@@H](C)[C@@H](O)[C@@H](C)[C@H](OC(C)=O)[C@@H]1C [RIFAMPIN]	Unstable	–
CN/C(=N/CCSCc1nc[nH]c1C)NC#N [CIMETIDINE]	Unstable	–
CC(C)NNC(=O)c1ccncc1 [IPRONIAZID]	–	IC50 shift at 0.5 h (CYP3A4): > 5; Stability (Liver microsomes [1]): Stable
COc1cc([C@@H]2c3cc4c(cc3[C@@H](O[C@@H]3O[C@@H]5CO[C@@H](C)O[C@H]5[C@H](O)[C@H]3O)[C@H]3COC(=O)[C@H]23)OCO4)cc(OC)c1O [ETOPOSIDE]	Unstable	–
Cn1cnc([N+](=O)[O-])c1Sc1ncnc2nc[nH]c12 [AZATHIOPRINE]	Unstable	–
COc1cc(NS(C)(=O)=O)ccc1Nc1c2ccccc2nc2ccccc12 [AMSACRINE]	Unstable	–
C[C@]12CC[C@@H]3c4ccc(O)cc4CC[C@H]3[C@@H]1CC[C@@H]2O [ESTRADIOL]	Unstable	IC50 shift at 0.5 h (CYP3A4): < 2
CCCCC1C(=O)N(c2ccccc2)N(c2ccc(O)cc2)C1=O (stereo unspecified) [OXYPHENBUTAZONE ANHYDROUS]	Unstable	–
CCC(C)(C)C(=O)O[C@H]1C[C@@H](C)C=C2C=C[C@H](C)[C@H](CC[C@@H]3C[C@@H](O)CC(=O)O3)[C@H]21 [SIMVASTATIN]	Unstable	–
CC(=O)[C@@]1(O)CC[C@H]2[C@@H]3C=C(Cl)C4=CC(=O)[C@@H]5C[C@@H]5[C@]4(C)[C@H]3CC[C@@]21C [CYPROTERONE]	Unstable	–
C[C@H]1[C@H](NC(=O)/C(=N\OC(C)(C)C(=O)O)c2csc(N)n2)C(=O)N1S(=O)(=O)O [AZTREONAM]	Unstable	–
CO/N=C(\C(=O)N[C@@H]1C(=O)N2C(C(=O)O)=C(CSc3nc(=O)c(=O)[nH]n3C)CS[C@H]12)c1csc(N)n1 [CEFTRIAXONE]	Unstable	–
C=C[C@H]1C[N@@]2CC[C@H]1C[C@@H]2[C@@H](O)c1ccnc2ccc(OC)cc12 [QUINIDINE]	Unstable	–
CCCCC1C(=O)N(c2ccccc2)N(c2ccccc2)C1=O [PHENYLBUTAZONE]	Unstable	–
CC1(C)O[C@@H]2C[C@H]3[C@@H]4C[C@H](F)C5=CC(=O)C=C[C@]5(C)[C@H]4[C@@H](O)C[C@]3(C)[C@]2(C(=O)CO)O1 [FLUNISOLIDE]	Unstable	–
